From patent publication US20260007758A1, “SO[…]-2 RECEPTOR (SST2R) NON-PEPTIDE DRUG CONJUGATES AND USES THEREOF” (Crinetics Pharmaceuticals, Inc., priority 2024, published 2026)

Key:
Type in all cases: cell-based
[1] = biological target: T1, human somatostatin receptor subtype 2 (Homo sapiens, UniProt P30874); assay: Functional assay for SSTR2 agonists (HTRF cAMP); conditions: CHO-K1 cells stably expressing human SST2; NKH477-stimulated cAMP; 20 min at 37 C; read-out: hSST2 cAMP Avg EC50
T1 construct: expressed in transfected cells
In short: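 CHO-K1 cells stably expressing human SSTR2 treated with compound (typically 0-10,000 nM final) for 20 min at 37 °C. Lysate cAMP measured by HTRF (665/620 nm ratio), converted via standard curve; EC50 from cAMP vs concentration.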

SST2 = biological target: T2, SST2 (Homo sapiens, UniProt P30874); assay: PathHunter CHO-K1 SST2 Internalization Assay; conditions: PathHunter CHO-K1 SST2 cells; 90 min at 37 C; luminescence; read-out: Internalization EC50
T2 construct: host or cells: PathHunter CHO-K1 SST2 cells
In short: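 CHO-K1 cells expressing human SST2, 2500 cells/well, grown 48 h, then exposed 90 min at 37 C to 11-point 1:3 NDC dilutions (final top 10 uM). Beta-Glo luminescence after 60 min at room temperature; four-parameter IC50, duplicate mean, background-corrected.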

[2] = test system: NCI-H524 human small cell lung cancer cells; assay: H524 assay: inhibition of cell proliferation (CellTiter Glo); conditions: 2 h treatment, washout, additional 70 h incubation
In short: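 NCI-H524 cells were exposed for 2 h to NDC in an 11-point two-fold series starting at 1 uM. The drug was then washed out and cells grew a further 70 h. CellTiter Glo luminescence gave % inhibition versus untreated control, and IC50 came from a four-parameter nonlinear regression.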

T1 sequence (P30874 whole entry): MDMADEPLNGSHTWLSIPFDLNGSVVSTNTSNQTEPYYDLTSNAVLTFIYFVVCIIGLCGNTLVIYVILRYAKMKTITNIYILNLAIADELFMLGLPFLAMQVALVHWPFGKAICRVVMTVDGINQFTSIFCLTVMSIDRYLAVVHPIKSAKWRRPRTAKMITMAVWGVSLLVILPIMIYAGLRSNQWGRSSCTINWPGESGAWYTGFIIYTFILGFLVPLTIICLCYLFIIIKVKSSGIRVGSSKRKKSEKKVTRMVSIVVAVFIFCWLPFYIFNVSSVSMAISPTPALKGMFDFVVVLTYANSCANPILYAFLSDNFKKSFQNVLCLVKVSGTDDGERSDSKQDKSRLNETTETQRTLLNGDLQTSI
T2 sequence (P30874 whole entry): as above

| Compound | EC50 [1] [nM] | EC50 (SST2) [nM] | EC50 [2] [nM] |
| --- | --- | --- | --- |
| CC[C@H](C)[C@@H]([C@@H](CC(=O)N1CCC[C@H]1[C@H](OC)[C@@H](C)C(=O)N[C@H](C)[C@@H](O)c1ccccc1)OC)N(C)C(=O)[C@@H](NC(=O)[C@H](C(C)C)N(C)C(=O)OCc1ccc(NC(=O)C(CCCNC(N)=O)NC(=O)[C@@H](NC(=O)c2cc(NC(=O)CCOCCC(=O)N(C)CC(=O)NCCNc3ncc(-c4cc(C)cc(F)c4)c(N4CCC(N)CC4)c3-c3nc4ccc(Cl)cc4[nH]3)cc(C(=O)NCC(=O)NCCN)c2)C(C)C)cc1)C(C)C (stereo partly drawn) [Compound 175] | 0.41 | 18 | 56 |
| CC[C@H](C)[C@@H]([C@@H](CC(=O)N1CCC[C@H]1[C@H](OC)[C@@H](C)C(=O)N[C@H](C)[C@@H](O)c1ccccc1)OC)N(C)C(=O)[C@@H](NC(=O)[C@H](C(C)C)N(C)C(=O)OCc1ccc(NC(=O)[C@H](CCCNC(N)=O)NC(=O)[C@@H](NC(=O)[C@H](CCc2nnn[nH]2)NC(=O)CCOCCC(=O)NCCNc2ncc(-c3cc(C)cc(F)c3)c(N3CCC(N)CC3)c2-c2nc3ccc(Cl)cc3[nH]2)C(C)C)cc1)C(C)C [Compound 176] | 0.28 | 3.7 | 620 |
| CC[C@H](C)[C@@H]([C@@H](CC(=O)N1CCC[C@H]1[C@H](OC)[C@@H](C)C(=O)N[C@H](C)[C@@H](O)c1ccccc1)OC)N(C)C(=O)[C@@H](NC(=O)[C@H](C(C)C)N(C)C(=O)OCc1ccc(NC(=O)[C@H](CCCNC(N)=O)NC(=O)[C@@H](NC(=O)c2cc(NCCOCCOCCOCCC(=O)NCCNc3ncc(-c4cc(C)cc(F)c4)c(N4CCC(N)CC4)c3-c3nc4ccc(Cl)cc4[nH]3)cc(C(=O)O)c2)C(C)C)cc1)C(C)C [Compound 177] | 0.23 | 11 | 2300 |
| CC[C@H](C)[C@@H]([C@@H](CC(=O)N1CCC[C@H]1[C@H](OC)[C@@H](C)C(=O)N[C@H](C)[C@@H](O)c1ccccc1)OC)N(C)C(=O)[C@@H](NC(=O)[C@H](C(C)C)N(C)C(=O)OCc1ccc(NC(=O)[C@H](CCCNC(N)=O)NC(=O)[C@@H](NC(=O)c2cc(NCCOCCOCCOCCC(=O)NCCNc3ncc(-c4cc(C)cc(F)c4)c(N4CCC(N)CC4)c3-c3nc4ccc(Cl)cc4[nH]3)cc(C(=O)OC)c2)C(C)C)cc1)C(C)C [Compound 178] | 0.27 | 5.6 | 620 |
| CC[C@H](C)[C@@H]([C@@H](CC(=O)N1CCC[C@H]1[C@H](OC)[C@@H](C)C(=O)N[C@H](C)[C@@H](O)c1ccccc1)OC)N(C)C(=O)[C@@H](NC(=O)[C@H](C(C)C)N(C)C(=O)OCc1ccc(NC(=O)[C@H](CCCNC(N)=O)NC(=O)[C@@H](NC(=O)c2cc(NCCOCCOCCOCCC(=O)NCCNc3ncc(-c4cc(C)cc(F)c4)c(N4CCC(N)CC4)c3-c3nc4ccc(Cl)cc4[nH]3)cc(C(=O)NCCN)c2)C(C)C)cc1)C(C)C [Compound 179] | 0.54 | 9.8 | 370 |
| CC[C@H](C)[C@@H]([C@@H](CC(=O)N1CCC[C@H]1[C@H](OC)[C@@H](C)C(=O)N[C@H](C)[C@@H](O)c1ccccc1)OC)N(C)C(=O)[C@@H](NC(=O)[C@H](C(C)C)N(C)C(=O)OCc1ccc(NC(=O)[C@H](CCCNC(N)=O)NC(=O)[C@@H](NC(=O)CCOCCOCCOCCOCCNc2ncc(C(=O)NCCNc3ncc(-c4cc(C)cc(F)c4)c(N4CCC(N)CC4)c3-c3nc4ccc(Cl)cc4[nH]3)cn2)C(C)C)cc1)C(C)C [Compound 180] | 0.52 | 16 | 680 |
| CC[C@H](C)[C@@H]([C@@H](CC(=O)N1CCC[C@H]1[C@H](OC)[C@@H](C)C(=O)N[C@H](C)[C@@H](O)c1ccccc1)OC)N(C)C(=O)[C@@H](NC(=O)[C@H](C(C)C)N(C)C(=O)OCc1ccc(NC(=O)[C@H](CCCNC(N)=O)NC(=O)[C@@H](NC(=O)C[C@@H](N)C(=O)NCCOCCC(=O)NCCNc2ncc(-c3cc(C)cc(F)c3)c(N3CCC(N)CC3)c2-c2nc3ccc(Cl)cc3[nH]2)C(C)C)cc1)C(C)C [Compound 181] | 0.38 | 3.4 | 190 |
| CC[C@H](C)[C@@H]([C@@H](CC(=O)N1CCC[C@H]1[C@H](OC)[C@@H](C)C(=O)N[C@H](C)[C@@H](O)c1ccccc1)OC)N(C)C(=O)[C@@H](NC(=O)[C@H](C(C)C)N(C)C(=O)OCc1ccc(NC(=O)[C@H](CCCNC(N)=O)NC(=O)[C@@H](NC(=O)c2ccc(NC(=O)CCOCCC(=O)NCCNc3ncc(-c4cc(C)cc(F)c4)c(N4CCC(N)CC4)c3-c3nc4ccc(Cl)cc4[nH]3)cc2O[C@@H]2OC(C(=O)O)[C@@H](O)[C@H](O)[C@H]2O)C(C)C)cc1)C(C)C (stereo partly drawn) [Compound 182] | 0.093 | 11 | 2300 |
| CC[C@H](C)[C@@H]([C@@H](CC(=O)N1CCC[C@H]1[C@H](OC)[C@@H](C)C(=O)N[C@H](C)[C@@H](O)c1ccccc1)OC)N(C)C(=O)[C@@H](NC(=O)[C@H](C(C)C)N(C)C(=O)OCc1ccc(NC(=O)[C@H](CCCNC(N)=O)NC(=O)[C@@H](NC(=O)c2ccc(NC(=O)CCOCCOCCOCCOCCC(=O)NCCNc3ncc(-c4cc(C)cc(F)c4)c(N4CCC(N)CC4)c3-c3nc4ccc(Cl)cc4[nH]3)cc2O[C@@H]2OC(C(=O)O)[C@@H](O)[C@H](O)[C@H]2O)C(C)C)cc1)C(C)C (stereo partly drawn) [Compound 183] | 0.074 | 3.1 | 1000 |
| CC[C@H](C)[C@@H]([C@@H](CC(=O)N1CCC[C@H]1[C@H](OC)[C@@H](C)C(=O)N[C@H](C)[C@@H](O)c1ccccc1)OC)N(C)C(=O)[C@@H](NC(=O)[C@H](C(C)C)N(C)C(=O)OCc1ccc(NC(=O)[C@H](CCCNC(N)=O)NC(=O)[C@@H](NC(=O)c2cc(NCCOCCC(=O)NCCNc3ncc(-c4cc(C)cc(F)c4)c(N4CCC(N)CC4)c3-c3nc4ccc(Cl)cc4[nH]3)cc(C(=O)NCCN)c2)C(C)C)cc1)C(C)C [Compound 184] | 0.063 | 1.8 | 240 |
| CC[C@H](C)[C@@H]([C@@H](CC(=O)N1CCC[C@H]1[C@H](OC)[C@@H](C)C(=O)N[C@H](C)[C@@H](O)c1ccccc1)OC)N(C)C(=O)[C@@H](NC(=O)[C@H](C(C)C)N(C)C(=O)OCc1ccc(NC(=O)[C@H](CCCNC(N)=O)NC(=O)[C@@H](NC(=O)c2cc(NCCOCCC(=O)NCCNc3ncc(-c4cc(C)cc(F)c4)c(N4CCC(N)CC4)c3-c3nc4ccc(Cl)cc4[nH]3)cc(C(=O)NCC(=O)O)c2)C(C)C)cc1)C(C)C [Compound 185] | 0.19 | 2.6 | 1100 |
| CC[C@H](C)[C@@H]([C@@H](CC(=O)N1CCC[C@H]1[C@H](OC)[C@@H](C)C(=O)N[C@H](C)[C@@H](O)c1ccccc1)OC)N(C)C(=O)[C@@H](NC(=O)[C@H](C(C)C)N(C)C(=O)OCc1ccc(NC(=O)[C@H](CCCNC(N)=O)NC(=O)[C@@H](NC(=O)c2cc(NCCOCCC(=O)NCCNc3ncc(-c4cc(C)cc(F)c4)c(N4CCC(N)CC4)c3-c3nc4ccc(Cl)cc4[nH]3)cc(C(=O)NCC(N)=O)c2)C(C)C)cc1)C(C)C [Compound 186] | 0.26 | 2.7 | 470 |
| CC[C@H](C)[C@@H]([C@@H](CC(=O)N1CCC[C@H]1[C@H](OC)[C@@H](C)C(=O)N[C@H](C)[C@@H](O)c1ccccc1)OC)N(C)C(=O)[C@@H](NC(=O)[C@H](C(C)C)N(C)C(=O)OCc1ccc(NC(=O)[C@H](CCCNC(N)=O)NC(=O)[C@@H](NC(=O)c2cc(NCCOCCC(=O)NCCNc3ncc(-c4cc(C)cc(F)c4)c(N4CCC(N)CC4)c3-c3nc4ccc(Cl)cc4[nH]3)cc(C(=O)NCCS(=O)(=O)O)c2)C(C)C)cc1)C(C)C [Compound 187] | 0.5 | 3.7 | 1800 |
